Reference: ChEMBL document CHEMBL4680217, “Discovery of PROTAC BCL-X degraders as potent anticancer agents with low on-target platelet toxicity” (Eur J Med Chem, 2020)
The source made the active and inactive calls. The calls are words filed in the database; no cut-off is given here.

Key:
[1] = target: T1, Protein cereblon/Bcl-2-like protein 1 (Homo sapiens, UniProt Q07817+Q96SW2); experiment: Protac activity at CRBN/BCL-XL in human MOLT-4 cells assessed as induction of BCL-XL degradation at 33 to 1000 nM measured after 16 hrs by immunoblotting analysis; type: cell-based; settings: dose 33-1000 nM
Target sequence in this assay (Q07817 whole entry, looked up): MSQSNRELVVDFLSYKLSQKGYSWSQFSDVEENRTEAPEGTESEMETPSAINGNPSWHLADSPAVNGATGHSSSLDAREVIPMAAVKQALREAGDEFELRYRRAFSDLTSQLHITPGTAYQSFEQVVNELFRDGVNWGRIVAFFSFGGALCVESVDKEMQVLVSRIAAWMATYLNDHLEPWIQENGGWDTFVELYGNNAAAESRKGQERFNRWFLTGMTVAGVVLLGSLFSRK
Target sequence in this assay (Q96SW2 whole entry, looked up): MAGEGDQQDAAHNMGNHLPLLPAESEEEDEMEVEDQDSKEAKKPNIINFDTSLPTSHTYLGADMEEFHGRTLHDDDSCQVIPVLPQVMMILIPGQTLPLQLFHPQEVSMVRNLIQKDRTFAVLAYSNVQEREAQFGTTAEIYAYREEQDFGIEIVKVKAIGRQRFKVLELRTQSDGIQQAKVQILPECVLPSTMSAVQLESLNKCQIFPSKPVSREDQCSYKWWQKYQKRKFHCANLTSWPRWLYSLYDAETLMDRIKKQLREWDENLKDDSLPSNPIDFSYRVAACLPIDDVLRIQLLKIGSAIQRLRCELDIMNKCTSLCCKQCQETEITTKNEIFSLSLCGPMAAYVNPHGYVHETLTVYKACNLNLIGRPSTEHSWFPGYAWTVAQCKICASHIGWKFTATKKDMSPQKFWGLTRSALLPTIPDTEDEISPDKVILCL

MOLT-4 [2] = experiment: Induction of apoptosis in human MOLT-4 cells assessed as early apoptotic cells at 10 nM measured after 48 hrs by Alexa Fluor 647-Annexin V/propidium iodide staining based flow cytometry (reference value: 1.5 to 1.7%); type: functional
MOLT-4 [3] = experiment: Induction of apoptosis in human MOLT-4 cells assessed as early apoptotic cells at 100 nM measured after 48 hrs in presence of pan-caspase inhibitor QVD by Alexa Fluor 647-Annexin V/propidium iodide staining based flow cytometry (reference value: 1.5 to 1.7%); type: functional
NCI-H146 = experiment: Antiproliferative activity against human NCI-H146 cells assessed as reduction in cell viability measured after 48 hrs by MTS assay; type: functional, cell-based; settings: NCI-H146, 48 h
MOLT-4 [4] = experiment: Induction of apoptosis in human MOLT-4 cells assessed as necrotic cells at 100 nM measured after 48 hrs in presence of pan-caspase inhibitor QVD by Alexa Fluor 647-Annexin V/propidium iodide staining based flow cytometry (reference value: 0.3 to 0.4%); type: functional
MOLT-4 [5] = experiment: Induction of apoptosis in human MOLT-4 cells assessed as viable cells at 100 nM measured after 48 hrs in presence of pan-caspase inhibitor QVD by Alexa Fluor 647-Annexin V/propidium iodide staining based flow cytometry (reference value: 97.1 to 97.3%); type: functional; settings: read-out: Activity
RS4-11 = experiment: Antiproliferative activity against human RS4-11 cells assessed as reduction in cell viability measured after 48 hrs by MTS assay; type: functional, cell-based; settings: RS4-11, 48 h
MOLT-4 [6] = experiment: Induction of apoptosis in human MOLT-4 cells assessed as necrotic cells at 100 nM measured after 48 hrs by Alexa Fluor 647-Annexin V/propidium iodide staining based flow cytometry (reference value: 0.3 to 0.4%); type: functional
[7] = Toxicity in human platelet assessed as reduction in cell viability measured after 48 hrs by MTS assay; type: tissue-based; settings: human platelets
MOLT-4 [8] = experiment: Induction of apoptosis in human MOLT-4 cells assessed as early apoptotic cells at 100 nM measured after 48 hrs by Alexa Fluor 647-Annexin V/propidium iodide staining based flow cytometry (reference value: 1.5 to 1.7%); type: functional
MOLT-4 [9] = experiment: Induction of apoptosis in human MOLT-4 cells assessed as necrotic cells at 10 nM measured after 48 hrs by Alexa Fluor 647-Annexin V/propidium iodide staining based flow cytometry (reference value: 0.3 to 0.4%); type: functional
MOLT-4 [10] = experiment: Antiproliferative activity against human MOLT-4 cells assessed as reduction in cell viability measured after 48 hrs by MTS assay; type: functional, cell-based; settings: MOLT-4, 48 h
MOLT-4 [11] = experiment: Induction of apoptosis in human MOLT-4 cells assessed as late apoptotic cells at 100 nM measured after 48 hrs by Alexa Fluor 647-Annexin V/propidium iodide staining based flow cytometry (reference value: 1.1 to 1.4%); type: functional
MOLT-4 [12] = experiment: Induction of apoptosis in human MOLT-4 cells assessed as viable cells at 10 nM measured after 48 hrs by Alexa Fluor 647-Annexin V/propidium iodide staining based flow cytometry (reference value: 97.1 to 97.3%); type: functional; settings: read-out: Activity
MOLT-4 [13] = experiment: Induction of apoptosis in human MOLT-4 cells assessed as viable cells at 100 nM measured after 48 hrs by Alexa Fluor 647-Annexin V/propidium iodide staining based flow cytometry (reference value: 97.1 to 97.3%); type: functional; settings: read-out: Activity
MOLT-4 [14] = experiment: Induction of apoptosis in human MOLT-4 cells assessed as late apoptotic cells at 10 nM measured after 48 hrs by Alexa Fluor 647-Annexin V/propidium iodide staining based flow cytometry (reference value: 1.1 to 1.4%); type: functional
MOLT-4 [15] = experiment: Induction of apoptosis in human MOLT-4 cells assessed as late apoptotic cells at 100 nM measured after 48 hrs in presence of pan-caspase inhibitor QVD by Alexa Fluor 647-Annexin V/propidium iodide staining based flow cytometry (reference value: 1.1 to 1.4%); type: functional
[16] = Selectivity index, ratio of IC50 for human platelet to IC50 for human MOLT-4 cells
[17] = target: von Hippel-Lindau disease tumor suppressor/Apoptosis regulator Bcl-2 (Homo sapiens) (UniProt P10415+P40337); experiment: Protac activity at VHL/BCL2 in human MOLT-4 cells assessed as induction of BCL2 degradation at 100 nM measured after 16 hrs by immunoblotting analysis; type: cell-based
[18] = target: T2, von Hippel-Lindau disease tumor suppressor/Bcl-2-like protein 1 (Homo sapiens, UniProt Q07817+P40337); experiment: Protac activity at VHL/BCL-XL in human MOLT-4 cells assessed as induction of BCL-XL degradation by measuring remaining BCL-XL level at 100 nM measured after 16 hrs by immunoblotting analysis relative to control; type: cell-based
Target sequence in this assay (P40337 whole entry, looked up): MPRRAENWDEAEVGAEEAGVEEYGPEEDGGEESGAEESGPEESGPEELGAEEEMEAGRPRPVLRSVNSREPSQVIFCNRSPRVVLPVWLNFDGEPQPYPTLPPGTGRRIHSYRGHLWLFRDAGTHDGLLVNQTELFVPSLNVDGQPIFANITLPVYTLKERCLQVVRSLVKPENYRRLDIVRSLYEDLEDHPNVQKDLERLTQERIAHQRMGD
Target sequence in this assay (Q07817 whole entry, looked up): as the sequence (Q07817 whole entry, looked up) above

[19] = target: T2, von Hippel-Lindau disease tumor suppressor/Bcl-2-like protein 1; experiment: Protac activity at VHL/BCL-XL in human MOLT-4 cells assessed as induction of BCL-XL degradation measured after 16 hrs by immunoblotting analysis; type: cell-based
Target sequence in this assay (Q07817 whole entry): as the sequence (Q07817 whole entry, looked up) above
Target sequence in this assay (P40337 whole entry): as the sequence (P40337 whole entry, looked up) above

[20] = target: T1, Protein cereblon/Bcl-2-like protein 1; experiment: Protac activity at CRBN/BCL-XL in human MOLT-4 cells assessed as induction of BCL-XL degradation measured after 16 hrs by immunoblotting analysis; type: cell-based
Target sequence in this assay (Q07817 whole entry): as the sequence (Q07817 whole entry, looked up) above
Target sequence in this assay (Q96SW2 whole entry): as the sequence (Q96SW2 whole entry, looked up) above

[21] = target: T1, Protein cereblon/Bcl-2-like protein 1; experiment: Protac activity at CRBN/BCL-XL in human MOLT-4 cells assessed as induction of BCL-XL degradation by measuring remaining BCL-XL level at 50 nM measured after 16 hrs by immunoblotting analysis relative to control; type: cell-based
Target sequence in this assay (Q07817 whole entry, looked up): as the sequence (Q07817 whole entry, looked up) above
Target sequence in this assay (Q96SW2 whole entry, looked up): as the sequence (Q96SW2 whole entry, looked up) above

[22] = target: Protein cereblon/Apoptosis regulator Bcl-2 (Homo sapiens) (UniProt P10415+Q96SW2); experiment: Protac activity at CRBN/BCL2 in human MOLT-4 cells assessed as induction of BCL2 degradation at 50 nM measured after 16 hrs by immunoblotting analysis; type: cell-based
MOLT-4 [23] = experiment: Potency index, ratio of ABT-263 IC50 to test compound IC50 for antiproliferative activity against human MOLT-4 cells assessed as reduction in cell viability measured after 48 hrs by MTS assay; type: functional

von Hippel-Lindau disease tumor suppressor/Apoptosis regulator Bcl-2 (Homo sapiens), sequence (P10415 whole entry, looked up): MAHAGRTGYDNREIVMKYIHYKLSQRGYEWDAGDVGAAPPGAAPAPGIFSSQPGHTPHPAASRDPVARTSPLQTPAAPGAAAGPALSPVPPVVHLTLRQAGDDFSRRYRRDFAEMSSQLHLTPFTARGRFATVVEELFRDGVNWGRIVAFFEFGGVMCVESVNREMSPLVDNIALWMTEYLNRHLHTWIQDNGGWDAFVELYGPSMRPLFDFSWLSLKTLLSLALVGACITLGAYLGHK
von Hippel-Lindau disease tumor suppressor/Apoptosis regulator Bcl-2 (Homo sapiens), sequence (P40337 whole entry, looked up): as the sequence (P40337 whole entry, looked up) above
Protein cereblon/Apoptosis regulator Bcl-2 (Homo sapiens), sequence (P10415 whole entry, looked up): as the sequence (P10415 whole entry, looked up) above
Protein cereblon/Apoptosis regulator Bcl-2 (Homo sapiens), sequence (Q96SW2 whole entry, looked up): as the sequence (Q96SW2 whole entry, looked up) above

SMILES	IC50 (NCI-H146) [nM]	IC50 (RS4-11) [nM]	IC50 (MOLT-4 [10]) [nM]	Activity [17]	Activity [18] [%]	DC50 [20] [nM]	IC50 at 48 h [7] [nM]	Ratio IC50 [16]	further results
CN(CCOCCOCCOCCNc1cccc2c1C(=O)N([C@@H]1CCC(=O)N(C)C1=O)C2=O)CC[C@H](CSc1ccccc1)Nc1ccc(S(=O)(=O)NC(=O)c2ccc(N3CCN(CC4=C(c5ccc(Cl)cc5)CCC(C)(C)C4)CC3)cc2)cc1S(=O)(=O)C(F)(F)F	–	–	–	–	–	–	–	–	Activity [1]: inactive
Cc1ncsc1-c1ccc([C@H](C)NC(=O)[C@@H]2C[C@@H](O)CN2C(=O)[C@@H](NC(=O)CCCCCC(=O)N2CCN(CC[C@H](CSc3ccccc3)Nc3ccc(S(=O)(=O)NC(=O)c4ccc(N5CCN(CC6=C(c7ccc(Cl)cc7)CCC(C)(C)C6)CC5)cc4)cc3S(=O)(=O)C(F)(F)F)CC2)C(C)(C)C)cc1 [DT-2216]	278	213	77.1	inactive	14	–	> 10000	>130	DC50 [19]: 53 nM
Cc1ncsc1-c1ccc([C@H](C)NC(=O)[C@@H]2C[C@@H](O)CN2C(=O)[C@@H](NC(=O)COCCOCCOCCOCCN(C)CC[C@H](CSc2ccccc2)Nc2ccc(S(=O)(=O)NC(=O)c3ccc(N4CCN(CC5=C(c6ccc(Cl)cc6)CCC(C)(C)C5)CC4)cc3)cc2S(=O)(=O)C(F)(F)F)C(C)(C)C)cc1	–	–	206	inactive	33	–	–	–	–
Cc1ncsc1-c1ccc([C@H](C)NC(=O)[C@@H]2C[C@@H](O)CN2C(=O)[C@@H](NC(=O)CCCCCCCN(C)CC[C@H](CSc2ccccc2)Nc2ccc(S(=O)(=O)NC(=O)c3ccc(N4CCN(CC5=C(c6ccc(Cl)cc6)CCC(C)(C)C5)CC4)cc3)cc2S(=O)(=O)C(F)(F)F)C(C)(C)C)cc1	–	–	147	inactive	45	–	–	–	–
Cc1ncsc1-c1ccc([C@H](C)NC(=O)[C@@H]2C[C@@H](O)CN2C(=O)[C@@H](NC(=O)CCCCCN(C)CC[C@H](CSc2ccccc2)Nc2ccc(S(=O)(=O)NC(=O)c3ccc(N4CCN(CC5=C(c6ccc(Cl)cc6)CCC(C)(C)C5)CC4)cc3)cc2S(=O)(=O)C(F)(F)F)C(C)(C)C)cc1	–	–	460	inactive	60	–	–	–	–
CC1(C)CCC(c2ccc(Cl)cc2)=C(CN2CCN(c3ccc(C(=O)NS(=O)(=O)c4ccc(N[C@H](CCN5CCN(CCOCCOCCOCCNc6cccc7c6C(=O)N([C@@H]6CCC(=O)NC6=O)C7=O)CC5)CSc5ccccc5)c(S(=O)(=O)C(F)(F)F)c4)cc3)CC2)C1	24.6	38.5	17.3	–	–	4.5	1560	90	Activity [21]: 5%; Activity [22]: inactive; Ratio IC50 (MOLT-4 [23]): 12

Continued, in another order:

IC50 (NCI-H146) [nM]	IC50 (RS4-11) [nM]	IC50 (MOLT-4 [10]) [nM]	Activity [17]	Activity [18] [%]	DC50 [20] [nM]	SMILES	IC50 at 48 h [7] [nM]	Ratio IC50 [16]	further results
43.8	49	227	–	–	–	CN(C)CC[C@H](CSc1ccccc1)Nc1ccc(S(=O)(=O)NC(=O)c2ccc(N3CCN(Cc4ccccc4-c4ccc(Cl)cc4)CC3)cc2)cc1[N+](=O)[O-] [ABT 737]	242	1.1	Activity (MOLT-4 [2]): 2.5%; Activity (MOLT-4 [3]): 2.6%; Activity (MOLT-4 [4]): 5.4%; viability at 0.1 µM (MOLT-4 [5]): 83.1%; Activity (MOLT-4 [6]): 0.4%; Activity (MOLT-4 [8]): 47.4%; Activity (MOLT-4 [9]): 0.1%; Activity (MOLT-4 [11]): 11.6%; viability at 0.01 µM (MOLT-4 [12]): 96%; viability at 0.1 µM (MOLT-4 [13]): 40.7%; Activity (MOLT-4 [14]): 1.4%; Activity (MOLT-4 [15]): 8.6%
265	189	81.3	inactive	28	–	Cc1ncsc1-c1ccc([C@H](C)NC(=O)[C@@H]2C[C@@H](O)CN2C(=O)[C@@H](NC(=O)CCCCCCN(C)CC[C@H](CSc2ccccc2)Nc2ccc(S(=O)(=O)NC(=O)c3ccc(N4CCN(CC5=C(c6ccc(Cl)cc6)CCC(C)(C)C5)CC4)cc3)cc2S(=O)(=O)C(F)(F)F)C(C)(C)C)cc1	> 10000	>123	DC50 [19]: 71 nM
–	–	–	–	–	50	O=C1CCC(N2C(=O)c3cccc(NCCOCCOCc4cn(CCCC(=O)N5CCN(CC#Cc6ccc(OCCCc7sc(N8CCc9cccc(C(=O)Nc%10nc%11ccccc%11s%10)c9C8)nc7C(=O)O)c(F)c6)CC5)nn4)c3C2=O)C(=O)N1 (configuration not stated)	–	–	–
61.7	62.2	29.2	–	–	6.3	CN(CCCCCCCn1cc(COCCOCCNc2cccc3c2C(=O)N([C@@H]2CCC(=O)NC2=O)C3=O)nn1)CC[C@H](CSc1ccccc1)Nc1ccc(S(=O)(=O)NC(=O)c2ccc(N3CCN(CC4=C(c5ccc(Cl)cc5)CCC(C)(C)C4)CC3)cc2)cc1S(=O)(=O)C(F)(F)F	6250	214	Activity [21]: 18%; Activity [22]: inactive
203	76	82	inactive	43	–	Cc1ncsc1-c1ccc([C@H](C)NC(=O)[C@@H]2C[C@@H](O)CN2C(=O)[C@@H](NC(=O)CCCCCN2CCN(CC[C@H](CSc3ccccc3)Nc3ccc(S(=O)(=O)NC(=O)c4ccc(N5CCN(CC6=C(c7ccc(Cl)cc7)CCC(C)(C)C6)CC5)cc4)cc3S(=O)(=O)C(F)(F)F)CC2)C(C)(C)C)cc1	> 10000	>122	DC50 [19]: 93 nM
70.2	129	32.5	–	–	10.6	CN(CCCNc1cccc2c1C(=O)N([C@@H]1CCC(=O)NC1=O)C2=O)CC[C@H](CSc1ccccc1)Nc1ccc(S(=O)(=O)NC(=O)c2ccc(N3CCN(CC4=C(c5ccc(Cl)cc5)CCC(C)(C)C4)CC3)cc2)cc1S(=O)(=O)C(F)(F)F	3300	101	Activity [21]: 31%; Activity [22]: inactive
